Source: US20250040541A1, “AN ANTIMICROBIAL LIQUID COMPOSITION, PROCESS FOR PREPARING THE SAME AND METHOD OF USE THEREOF” (ISP Investments LLC, priority 2021, published 2025)

Columns and labels:
Type in all cases: cell-based
[1] = test system: Gram-negative bacteria (Escherichia coli 8739, Pseudomonas aeruginosa 9027, Burkholderia cepacia 25416); test: 28-day double inoculation challenge test in sunscreen emulsion base, Gram-negative inoculum
Protocol: (§1) The test was conducted in sunscreen emulsion base, pH 7 (Table 3).
(§2) Method: The emulsion was formulated with 2% of the blend #1 or with the appropriate controls, plus water to add up to the 2% of the concentration in the emulsion.
(§3) Briefly, each tested sample was split into three containers to be challenged, respectively, with either of the three classes of common contaminants: Gram-positive bacteria, Gram-negative bacteria, and fungi. Accordingly, three types of inocula were prepared as outlined in the Table 4. The Gram-positive bacterial inoculum consisted of the single microorganism, while the Gram-negative bacterial inoculum and fungal inoculum, each, consisted of more than one species pooled together (Table 4).
(§4) The test samples were spiked with the microbial inoculum on days 0 and 21, with the final concentration of bacteria being 10^6 cfu/g and the final concentration of fungi being 10^5 cfu/g. Inoculated samples were incubated at ambient temperature. On days 2, 7, 21 and 28 the samples were plated to recover viable microorganisms. Letheen Agar was used for the recovery of bacteria and on Potato Dextrose Agar was used for the recovery of fungi.

[2] = test system: Fungi (Candida albicans 10231 and Aspergillus brasiliensis 16404); test: 28-day double inoculation challenge test in sunscreen emulsion base, fungal inoculum
Protocol: as §1, §2, §3, §4

[3] = test system: Gram-positive bacteria (Staphylococcus aureus 6538); test: 28-day double inoculation challenge test in sunscreen emulsion base, Gram-positive inoculum
Protocol: as §1, §2, §3, §4

[4] = 0.75% active, 1.25% water in sunscreen emulsion base, pH 7, 2 days
[5] = 0.75% active, 1.25% water in sunscreen emulsion base, pH 7, 7 days
[6] = 0.75% active, 1.25% water in sunscreen emulsion base, pH 7, 21 days (before re-inoculation)
[7] = 0.75% active, 1.25% water in sunscreen emulsion base, pH 7, 28 days (7 days after re-inoculation)
[8] = 0.5% active, […] water in sunscreen emulsion base, pH 6.99, 2 days
[9] = 0.5% active, […] water in sunscreen emulsion base, pH 6.99, 7 days
[10] = 0.5% active, […] water in sunscreen emulsion base, pH 6.99, 21 days (before re-inoculation)
[11] = 0.5% active, […] water in sunscreen emulsion base, pH 6.99, 28 days (7 days after re-inoculation)

Structure (SMILES): OCCCc1ccccc1 [Phenylpropanol]
- plate counts recovered [1, 4]: >10^4 cfu/g
- plate counts recovered [1, 5]: >10^4 cfu/g
- plate counts recovered [1, 6]: 6.00 × 10^3 cfu/g
- plate counts recovered [1, 7]: >10^4 cfu/g
- plate counts recovered [2, 4]: 3.70 × 10^4 cfu/g
- plate counts recovered [2, 5]: 1.80 × 10^4 cfu/g
- plate counts recovered [2, 6]: 4.00 × 10^3 cfu/g
- plate counts recovered [2, 7]: >10^4 cfu/g
- plate counts recovered [3, 4]: >10^4 cfu/g
- plate counts recovered [3, 5]: <10 cfu/g
- plate counts recovered [3, 6]: <10 cfu/g
- plate counts recovered [3, 7]: 1.30 × 10^3 cfu/g

Structure (SMILES): OCCCO [1,3-Propanediol]
- plate counts recovered [1, 4]: >10^4 cfu/g
- plate counts recovered [1, 5]: <10 cfu/g
- plate counts recovered [1, 6]: <10 cfu/g
- plate counts recovered [1, 7]: 2.00 × 10^2 cfu/g
- plate counts recovered [2, 4]: 3.40 × 10^4 cfu/g
- plate counts recovered [2, 5]: 1.6 × 10^4 cfu/g
- plate counts recovered [2, 6]: 9.5 × 10^4 cfu/g
- plate counts recovered [2, 7]: >10^4 cfu/g
- plate counts recovered [3, 4]: >10^4 cfu/g
- plate counts recovered [3, 5]: <10 cfu/g
- plate counts recovered [3, 6]: <10 cfu/g

Structure (SMILES): CC(=O)CCc1ccc(O)cc1 [Raspberry ketone, 4-(4-hydroxyphenyl) butan-2-one]
- plate counts recovered [1, 8]: >10^4 cfu/g
- plate counts recovered [1, 9]: >10^4 cfu/g
- plate counts recovered [1, 10]: 1.3 × 10^3 cfu/g
- plate counts recovered [1, 11]: >10^4 cfu/g
- plate counts recovered [2, 8]: 2.4 × 10^4 cfu/g
- plate counts recovered [2, 9]: 2.40 × 10^4 cfu/g
- plate counts recovered [2, 10]: 4.4 × 10^3 cfu/g
- plate counts recovered [2, 11]: >10^4 cfu/g
- plate counts recovered [3, 8]: >10^4 cfu/g
- plate counts recovered [3, 9]: <10 cfu/g
- plate counts recovered [3, 10]: <10 cfu/g
- plate counts recovered [3, 11]: 2.1 × 10^2 cfu/g
